pIC50: −log10 of the molar value.
Molecular target: T1, IL-17A/A (Homo sapiens, UniProt Q16552)
T1 construct: purchased Genscript Z03228
T1 sequence (Q16552 24-155): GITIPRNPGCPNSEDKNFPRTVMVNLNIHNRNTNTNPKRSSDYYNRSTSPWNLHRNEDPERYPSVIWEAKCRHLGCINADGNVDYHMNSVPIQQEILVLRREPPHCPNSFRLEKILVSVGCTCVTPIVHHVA
Assay: IL-17A/A HEK-Blue cell assay
Format: cell-based
Settings: HEK-Blue IL-17A reporter cell line (HEK 293), IL-17A/A stimulation, 20 hours incubation, SEAP read at A630
Outline: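 IC50 came from a 4-parameter fit of SEAP read at A630 (Quanti-Blue). Compound was titrated to a top final concentration of 10, 1 or 0.3 uM with 0.1% final DMSO and added just before IL-17A/A. Incubation lasted 20 hours in HEK293 cells engineered with IL-17RA, IL-17RC, Act1 and an NFκB-SEAP reporter.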

SMILES | pIC50
O=C(N[C@H](c1cn2nc(CC3C[C@@H](C(F)(F)F)CNC3=O)ccc2n1)C1CCC(F)(F)CC1)c1nonc1C(F)F (stereo partly drawn) [Compound 115, N-((1S)-(4,4-difluorocyclohexyl)(6-(((5R)-2-oxo-5-(trifluoromethyl)piperidin-3-yl)methyl)imidazo[1,2-b]pyridazin-2-yl)methyl)-4-(difluoromethyl)-1,2,5-oxadiazole-3-carboxamide] | 6.00 to 7.00
CCn1nccc1C(=O)NC(c1cn2ncc(CC3CC(F)(F)CNC3=O)cc2n1)C1CCC(C)CC1 (single isomer, unassigned) [Compound 211] | 6.00 to 7.00
CCn1nccc1C(=O)N[C@H](c1cn2ncc(CC3CCNC3=O)cc2n1)C1CCCCCC1 (stereo partly shown) [Compound 203, N-((1 S)-cycloheptyl(7-((2-oxopyrrolidin-3-yl)methyl)imidazo[1,2-b]pyridazin-2-yl)methyl)-1-ethyl-1H-pyrazole-5-carboxamide] | < 6.00
CCc1nonc1C(=O)N[C@H](c1cn2nc(CC3C[C@@H](C(F)(F)F)CNC3=O)ccc2n1)C1CCC(F)(F)CC1 (stereo partly drawn) [Compound 112, N-((1S)-(4,4-difluorocyclohexyl)(6-(((5R)-2-oxo-5-(trifluoromethyl)piperidin-3-yl)methyl)imidazo[1,2-b]pyridazin-2-yl)methyl)-4-ethyl-1,2,5-oxadiazole-3-carboxamide] | 6.00 to 7.00
CC(C)n1nncc1C(=O)N[C@H](c1cn2nc(CC3C[C@@H](C(F)(F)F)CNC3=O)ccc2n1)[C@H]1CC[C@H](C)CC1 (stereo partly drawn) [Compound 163, N-((1S)-((1R.4S)-4-methylcyclohexyl)(6-(((5R)-2-oxo-5-(trifluoromethyl)piperidin-3-yl)methyl)imidazo[1,2-b]pyridazin-2-yl)methyl)-1-isopropyl-1H-1,2,3-triazole-5-carboxamide] | 6.00 to 7.00
O=C(N[C@H](c1cn2nc(CC3C[C@@H](C(F)(F)F)CNC3=O)ccc2n1)C1CCC(F)(F)CC1)c1nonc1C(F)(F)F (stereo partly drawn) [Compound 113, N-((1S)-(4,4-difluorocyclohexyl)(6-(((5R)-2-oxo-5-(trifluoromethyl)piperidin-3-yl)methyl)imidazo[1,2-b]pyridazin-2-yl)methyl)-4-(trifluoromethyl)-1,2,5-oxadiazole-3-carboxamide] | 6.00 to 7.00
CCn1nccc1C(=O)N[C@H](c1cn2nc(C(C)C3C[C@@H](C(F)(F)F)CNC3=O)ccc2n1)C(C1CC1)C1CC1 (single isomer, unassigned) [Compound 56] | < 6.00
Cc1nonc1C(=O)N[C@H](c1cn2nc(C[C@H]3CCCNC3=O)ccc2n1)C(C1CC1)C1CC1 [Compound 36, N—((S)-2,2-dicyclopropyl-1-(6-(((R)-2-oxopiperidin-3-yl)methyl)imidazo[1,2-b]pyridazin-2-yl)ethyl)-4-methyl-1,2,5-oxadiazole-3-carboxamide] | < 6.00
CCn1nccc1C(=O)N[C@H](c1cn2nc(CC3CC(F)(F)CNC3=O)ccc2n1)C(C1CC1)C1CC1 (single isomer, unassigned) [Compound 28] | 6.00 to 7.00
O=C(N[C@H](c1cn2nc(CC3C[C@@H](C(F)(F)F)CNC3=O)ccc2n1)C1CCC(F)(F)CC1)c1cnnn1CCF (stereo partly drawn) [Compound 109, N-((1S)-(4,4-difluorocyclohexyl)(6-(((5R)-2-oxo-5-(trifluoromethyl)piperidin-3-yl)methyl)imidazo[1,2-b]pyridazin-2-yl)methyl)-1-(2-fluoroethyl)-1H-1,2,3-triazole-5-carboxamide] | 6.00 to 7.00
CCn1nccc1C(=O)N[C@H](c1cn2nc(CC3C[C@H](C(F)(F)F)CNC3=O)ccc2n1)C1CCCCCC1 (stereo partly drawn) [Compound 177, N—((S)-cycloheptyl(6-(((5S)-2-oxo-5-(trifluoromethyl)piperidin-3-yl)methyl)imidazo[1,2-b]pyridazin-2-yl)methyl)-1-ethyl-1H-pyrazole-5-carboxamide] | > 7.00
O=C(N[C@H](c1cn2nc(CC3C[C@@H](C(F)(F)F)CNC3=O)ccc2n1)[C@H]1CCCC(F)(F)C1)c1conc1C1CC1 (stereo partly drawn) [Compound 146, 3-cyclopropyl-N-((1S)—((S)-3,3-difluorocyclohexyl)(6-(((5R)-2-oxo-5-(trifluoromethyl)piperidin-3-yl)methyl)imidazo[1,2-b]pyridazin-2-yl)methyl)isoxazole-4-carboxamide] | > 7.00
O=C1NC[C@H](C(F)(F)F)CC1Cc1ccc2nc([C@@H](NC(=O)C3CC34CC(F)(F)C4)C3CCC(F)(F)CC3)cn2n1 (single isomer, unassigned) [Compound 130] | < 6.00
Cc1nonc1C(=O)N[C@H](c1cn2nc(CC3CCNC3=O)ccc2n1)C1CCCCCC1 (single isomer, unassigned) [Compound 14, N-((1 S)-cycloheptyl(6-((2-oxopyrrolidin-3-yl)methyl)imidazo[1,2-b]pyridazin-2-yl)methyl)-4-methyl-1,2,5-oxadiazole-3-carboxamide] | 6.00 to 7.00
CCn1nccc1C(=O)N[C@H](c1cn2nc(CC3C[C@@H](C(F)(F)F)CNC3=O)ccc2n1)C1CC2(C1)CC(F)(F)C2 (single isomer, unassigned) [Compound 173] | 6.00 to 7.00
CCn1nccc1C(=O)N[C@H](c1cn2nc(CC3CC(C(F)(F)F)CNC3=O)ccc2n1)C1CCCCCC1 (stereo partly shown) [Compound 3, N-((1 S)-cycloheptyl(6-((2-oxo-5-(trifluoromethyl)piperidin-3-yl)methyl)imidazo[1,2-b]pyridazin-2-yl)methyl)-1-ethyl-1H-pyrazole-5-carboxamide] | > 7.00

SMILES | pIC50
CC(C)n1nccc1C(=O)N[C@H](c1cn2nc(CC3C[C@@H](C(F)(F)F)CNC3=O)ccc2n1)[C@@H]1CCCC(F)(F)C1 (stereo partly drawn) [Compound 149, N-((1S)—((R)-3,3-difluorocyclohexyl)(6-(((5R)-2-oxo-5-(trifluoromethyl)piperidin-3-yl)methyl)imidazo[1,2-b]pyridazin-2-yl)methyl)-1-isopropyl-1H-pyrazole-5-carboxamide] | > 7.00
Cc1nonc1C(=O)N[C@H](c1cn2nc(C[C@H]3CCCNC3=O)ccc2n1)C1CCC(F)(F)CC1 [Compound 38, N—((S)-(4,4-difluorocyclohexyl)(6-(((R)-2-oxopiperidin-3-yl)methyl)imidazo[1,2-b]pyridazin-2-yl)methyl)-4-methyl-1,2,5-oxadiazole-3-carboxamide] | < 6.00
CC[C@@H](c1ccc(F)cc1)C(NC(=O)c1ccnn1CC)c1cn2nc(CC3CC(F)(F)CNC3=O)ccc2n1 (single isomer, unassigned) [Compound 30] | 6.00 to 7.00
CCn1nccc1C(=O)N[C@H](c1cn2nc(CC3C[C@@H](C(F)(F)F)CNC3=O)c(C(F)(F)F)cc2n1)[C@H]1CC[C@H](C)CC1 (single isomer, unassigned) [Compound 79] | < 6.00
CCn1nccc1C(=O)N[C@H](c1cn2nc(CC3C(=O)NCCC3C)ccc2n1)[C@H]1CC[C@H](C)CC1 (single isomer, unassigned) [Compound 54] | 6.00 to 7.00
CCn1nccc1C(=O)N[C@H](c1cn2nc(CC3C[C@@H](C(F)(F)F)CNC3=O)c(C)cc2n1)C1CCC(F)(F)CC1 (single isomer, unassigned) [Compound 83] | 6.00 to 7.00
CCn1nccc1C(=O)N[C@H](c1cn2nc(CC3C[C@@H](C(F)(F)F)CNC3=O)c(N(C)C3CCOCC3)cc2n1)C1CCC(F)(F)CC1 (single isomer, unassigned) [Compound 93] | 6.00 to 7.00
O=C(N[C@H](c1cn2nc(CC3C[C@H](C(F)(F)F)CNC3=O)ccc2n1)[C@@H]1CCCC(F)(F)C1)c1nonc1C1CC1 (stereo partly drawn) [Compound 156, 4-cyclopropyl-N—((S)-((R)-3,3-difluorocyclohexyl)(6-(((5S)-2-oxo-5-(trifluoromethyl)piperidin-3-yl)methyl)imidazo[1,2-b]pyridazin-2-yl)methyl)-1,2,5-oxadiazole-3-carboxamide] | 6.00 to 7.00
CCn1nccc1C(=O)NC(c1cn2nc(CC3CC(C)CNC3=O)ccc2n1)C1CCC(C)CC1 (single isomer, unassigned) [Compound 51] | 6.00 to 7.00
CCn1nccc1C(=O)N[C@H](c1cn2nc(CC3C[C@@H](C(F)(F)F)CNC3=O)c(C)cc2n1)C1CCC(F)(F)CC1 (single isomer, unassigned) [Compound 82] | < 6.00
CCn1nccc1C(=O)N[C@H](c1cn2nc(CC3C[C@@H](C(F)(F)F)CNC3=O)c(N(C)C3CC3)cc2n1)C1CCC(F)(F)CC1 (single isomer, unassigned) [Compound 91] | > 7.00
CCn1nccc1C(=O)N[C@H](c1cn2nc(CC3CCC(C(F)(F)F)NC3=O)ccc2n1)C(C1CC1)C1CC1 (single isomer, unassigned) [Compound 42] | < 6.00
CCn1nccc1C(=O)N[C@H](c1cn2nc(CC3C[C@@H](C(F)(F)F)CNC3=O)ccc2n1)C1CC(C2CC2)(C2CC2)C1 (stereo partly drawn) [Compound 172, N-((1S)-(3,3-dicyclopropylcyclobutyl)(6-(((5R)-2-oxo-5-(trifluoromethyl)piperidin-3-yl)methyl)imidazo[1,2-b]pyridazin-2-yl)methyl)-1-ethyl-1H-pyrazole-5-carboxamide] | < 6.00
CCn1nccc1C(=O)N[C@H](c1cn2nc(CC3CC4(CC4)NC3=O)ccc2n1)C(C1CC1)C1CC1 (stereo partly drawn) [Compound 60, N-((1S)-2,2-dicyclopropyl-1-(6-((5-oxo-4-azaspiro[2.4]heptan-6-yl)methyl)imidazo[1,2-b]pyridazin-2-yl)ethyl)-1-ethyl-1H-pyrazole-5-carboxamide] | 6.00 to 7.00
CC(C)(F)c1nocc1C(=O)N[C@H](c1cn2nc(CC3C[C@@H](C(F)(F)F)CNC3=O)ccc2n1)C1CCC(F)(F)CC1 (stereo partly drawn) [Compound 121, N-((1S)-(4,4-difluorocyclohexyl)(6-(((5R)-2-oxo-5-(trifluoromethyl)piperidin-3-yl)methyl)imidazo[1,2-b]pyridazin-2-yl)methyl)-3-(2-fluoropropan-2-yl)isoxazole-4-carboxamide] | 6.00 to 7.00

From US20250346602A1, “LACTAM SUBSTITUTED IMIDAZOPYRIDAZINE IL-17A MODULATORS AND USES THEREOF” (DICE ALPHA, INC., priority 2022, published 2025)
